Where a name gives a salt, the structure may show the parent alone.
Legend:
RON (human) = RON (human) (Homo sapiens, UniProt Q04912); experiment: RON kinase AlphaScreen assay (Km of ATP); assay type: biochemical; settings: ATP at Km; at least duplicate experiments
Summary of the method: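 Human RON phosphorylated biotinylated poly(Glu,Tyr) (200 ng/μL) at Km ATP in 50 mM HEPES pH 7.4, 12.5 mM MgCl2, 1% glycerol, 0.334 mM vanadate, 1% DMSO. Reaction ran 30 min at RT after enzyme addition. Product was detected by AlphaScreen with PT66 beads after 1 h.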

MET (human) = MET (human) (Homo sapiens, UniProt P08581); experiment: MET kinase AlphaScreen assay (Km of ATP); assay type: biochemical; settings: ATP at Km; at least duplicate experiments
Chain of MET (human) (P08581 25-1390): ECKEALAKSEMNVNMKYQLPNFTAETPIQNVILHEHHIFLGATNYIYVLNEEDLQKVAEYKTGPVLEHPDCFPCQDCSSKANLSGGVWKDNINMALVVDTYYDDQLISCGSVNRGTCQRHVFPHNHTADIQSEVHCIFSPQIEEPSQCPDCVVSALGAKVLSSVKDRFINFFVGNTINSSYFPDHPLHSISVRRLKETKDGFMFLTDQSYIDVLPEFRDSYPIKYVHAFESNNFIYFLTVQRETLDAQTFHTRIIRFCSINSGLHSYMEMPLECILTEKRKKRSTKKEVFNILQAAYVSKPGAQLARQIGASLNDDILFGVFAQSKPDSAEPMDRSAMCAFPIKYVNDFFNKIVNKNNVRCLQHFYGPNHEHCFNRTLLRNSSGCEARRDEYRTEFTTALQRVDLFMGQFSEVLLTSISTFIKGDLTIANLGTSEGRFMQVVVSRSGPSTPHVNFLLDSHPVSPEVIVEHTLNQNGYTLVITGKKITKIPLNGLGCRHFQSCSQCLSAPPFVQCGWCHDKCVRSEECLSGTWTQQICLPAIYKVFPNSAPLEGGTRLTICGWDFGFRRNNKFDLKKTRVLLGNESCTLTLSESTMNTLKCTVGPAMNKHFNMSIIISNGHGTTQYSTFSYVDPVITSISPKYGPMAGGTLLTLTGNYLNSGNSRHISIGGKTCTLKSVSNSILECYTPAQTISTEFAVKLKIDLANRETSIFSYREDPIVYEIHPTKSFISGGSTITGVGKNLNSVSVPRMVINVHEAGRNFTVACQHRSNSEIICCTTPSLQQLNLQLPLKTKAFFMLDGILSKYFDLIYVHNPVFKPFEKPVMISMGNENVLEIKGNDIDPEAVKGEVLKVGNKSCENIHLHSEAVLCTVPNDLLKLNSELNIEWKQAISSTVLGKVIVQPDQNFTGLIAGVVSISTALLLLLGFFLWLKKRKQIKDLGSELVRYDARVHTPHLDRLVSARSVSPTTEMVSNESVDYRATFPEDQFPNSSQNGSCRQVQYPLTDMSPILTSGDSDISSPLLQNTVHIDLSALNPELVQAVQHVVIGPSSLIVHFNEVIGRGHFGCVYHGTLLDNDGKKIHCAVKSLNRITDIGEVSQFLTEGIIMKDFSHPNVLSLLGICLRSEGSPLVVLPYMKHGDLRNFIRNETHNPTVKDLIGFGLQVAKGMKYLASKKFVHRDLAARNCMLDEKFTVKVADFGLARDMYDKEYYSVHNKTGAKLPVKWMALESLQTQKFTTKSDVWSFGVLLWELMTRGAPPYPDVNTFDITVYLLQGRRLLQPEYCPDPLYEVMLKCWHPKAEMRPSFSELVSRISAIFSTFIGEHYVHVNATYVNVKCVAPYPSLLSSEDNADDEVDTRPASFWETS
Summary of the method: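 Biotinylated poly(Glu,Tyr) (200 ng/μL) phosphorylated by MET with ATP at an enzyme-optimized level, in 50 mM HEPES pH 7.4 with Mg2+/Mn2+ and vanadate, 1% DMSO. Reaction runs 60 min at RT. PT66 AlphaScreen donor/acceptor beads are added and signal is read after 1 h.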

Chain of RON (human) (Q04912 25-1400): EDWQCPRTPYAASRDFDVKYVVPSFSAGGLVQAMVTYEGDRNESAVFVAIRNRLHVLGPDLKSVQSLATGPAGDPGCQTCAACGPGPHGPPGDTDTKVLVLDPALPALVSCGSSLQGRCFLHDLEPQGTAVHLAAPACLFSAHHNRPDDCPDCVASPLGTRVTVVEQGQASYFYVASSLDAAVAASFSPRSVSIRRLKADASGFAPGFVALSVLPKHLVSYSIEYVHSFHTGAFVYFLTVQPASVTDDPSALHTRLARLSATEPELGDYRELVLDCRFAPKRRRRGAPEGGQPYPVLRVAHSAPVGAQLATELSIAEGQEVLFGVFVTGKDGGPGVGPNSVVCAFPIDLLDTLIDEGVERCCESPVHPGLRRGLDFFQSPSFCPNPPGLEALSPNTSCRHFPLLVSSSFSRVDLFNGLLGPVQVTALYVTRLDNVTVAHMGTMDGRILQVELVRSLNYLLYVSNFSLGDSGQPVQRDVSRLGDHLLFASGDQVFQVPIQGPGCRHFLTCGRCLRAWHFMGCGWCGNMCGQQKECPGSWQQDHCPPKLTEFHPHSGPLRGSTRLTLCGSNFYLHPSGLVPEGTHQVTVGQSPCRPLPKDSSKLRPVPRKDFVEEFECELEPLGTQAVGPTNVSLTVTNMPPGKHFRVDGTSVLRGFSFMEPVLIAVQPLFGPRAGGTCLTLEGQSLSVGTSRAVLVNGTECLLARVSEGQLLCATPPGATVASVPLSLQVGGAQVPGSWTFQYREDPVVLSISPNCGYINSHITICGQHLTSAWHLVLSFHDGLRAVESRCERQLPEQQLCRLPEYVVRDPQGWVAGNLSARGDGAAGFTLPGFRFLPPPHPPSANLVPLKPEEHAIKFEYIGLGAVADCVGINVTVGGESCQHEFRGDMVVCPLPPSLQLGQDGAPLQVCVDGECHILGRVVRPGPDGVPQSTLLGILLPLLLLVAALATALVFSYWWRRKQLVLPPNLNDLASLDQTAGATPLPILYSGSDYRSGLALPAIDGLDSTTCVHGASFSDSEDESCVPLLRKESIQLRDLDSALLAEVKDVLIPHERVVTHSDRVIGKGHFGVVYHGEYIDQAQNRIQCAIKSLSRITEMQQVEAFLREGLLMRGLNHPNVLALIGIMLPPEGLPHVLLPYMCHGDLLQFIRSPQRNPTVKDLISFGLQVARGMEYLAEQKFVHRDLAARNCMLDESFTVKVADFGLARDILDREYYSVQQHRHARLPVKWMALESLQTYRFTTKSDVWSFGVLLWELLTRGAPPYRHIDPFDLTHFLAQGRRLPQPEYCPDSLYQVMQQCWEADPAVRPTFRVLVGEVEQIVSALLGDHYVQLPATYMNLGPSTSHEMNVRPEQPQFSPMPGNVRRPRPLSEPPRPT

Row | Compound | IC50 (RON (human)) | IC50 (MET (human))
1 | CCOC(=O)COc1ccc(-c2cnc(N)c(-c3cc4c(Cl)ccc(F)c4cn3)c2)cc1 [Example 83, Ethyl-[4-(6-amino-5-(5-chloro-8-fluoroisoquinolin-3-yl)pyridin-3-yl)phenoxy]acetate] | 1000 to 20000 nM | 1000 to 20000 nM
2 | Nc1ncc(-c2ccc(O)nc2)cc1-c1cc2c(Cl)ccc(F)c2cn1 [Example 84, 6′-Amino-5′-(5-chloro-8-fluoroisoquinolin-3-yl)-3,3′-bipyridin-6-ol] | 1000 to 20000 nM | 1000 to 20000 nM
3 | Nc1ncc(-c2ccoc2)cc1-c1cc2c(Cl)ccc(F)c2cn1 [Example 85, 3-(5-Chloro-8-fluoroisoquinolin-3-yl)-5-furan-3-ylpyridin-2-amine] | > 20000 nM | 1000 to 20000 nM
4 | Nc1ncc(-c2ccco2)cc1-c1cc2c(Cl)ccc(F)c2cn1 [Example 86, 3-(5-Chloro-8-fluoroisoquinolin-3-yl)-5-furan-2-ylpyridin-2-amine] | > 20000 nM | 1000 to 20000 nM
5 | Nc1ncc(-c2cn[nH]c2)cc1-c1cc2c(Cl)ccc(F)c2cn1 [Example 87, 3-(5-Chloro-8-fluoroisoquinolin-3-yl)-5-(1H-pyrazol-4-yl)pyridin-2-amine] | 1000 to 20000 nM | 1000 to 20000 nM
6 | Nc1ncc(-c2ccc(NCCN3CCOCC3)nc2)cc1-c1cc2c(Cl)ccc(F)c2cn1 [Example 88, 3-(5-Chloro-8-fluoroisoquinolin-3-yl)-5-N6′-(2-morpholin-4-ylethyl)-3,3′-bipyridine-6,6′-diamine] | 1000 to 20000 nM | 1000 to 20000 nM
7 | Nc1ncc(-c2cc3ccccc3[nH]2)cc1-c1cc2c(Cl)ccc(F)c2cn1 [Example 89, 3-(5-Chloro-8-fluoroisoquinolin-3-yl)-5-(1H-indol-2-yl)pyridin-2-amine] | 1000 to 20000 nM | 1000 to 20000 nM
8 | COc1ccc(Cl)c2cc(-c3cc(-c4ccc(C(=O)O)cc4)cnc3N)ncc12 [Example 90, 4-[6-Amino-5-(5-chloro-8-methoxyisoquinolin-3-yl)-pyridin-3-yl]benzoic acid] | 100 to 1000 nM | 100 to 1000 nM
9 | COc1ccc(Cl)c2cc(-c3cc(-c4cccc(C(=O)O)c4)cnc3N)ncc12 [Example 91, 3-[6-Amino-5-(5-chloro-8-methoxyisoquinolin-3-yl)-pyridin-3-yl]benzoic acid] | > 20000 nM | > 20000 nM
10 | Nc1ncc(-c2cnn(C3CCNCC3)c2)cc1-c1cc2ccccc2o1 [Example 92, 3-Benzofuran-2-yl-5-(1-piperidin-4-yl-1H-pyrazol-4-yl)-pyridin-2-ylamine dihydrochloride] | 1000 to 20000 nM | 100 to 1000 nM
11 | Nc1ncc(-c2cnn(C3CCNCC3)c2)cc1-c1oc2ccccc2c1Cl [Example 93, 3-(3-Chlorobenzofuran-2-yl)-5-(1-piperidin-4-yl-1H-pyrazol-4-yl)-pyridin-2-ylamine dihydrochloride] | 100 to 1000 nM | 100 to 1000 nM
12 | Cc1c(-c2cc(-c3cnn(C4CCNCC4)c3)cnc2N)oc2ccccc12 [Example 94, 3-(3-Methylbenzofuran-2-yl)-5-(1-piperidin-4-yl-1H-pyrazol-4-yl)pyridin-2-ylamine bishydrochloride] | 1000 to 20000 nM | 100 to 1000 nM
13 | Nc1ncc(-c2cnn(C3CCNCC3)c2)cc1-c1oc2ccccc2c1Br [Example 95, 3-(3-Bromobenzofuran-2-yl)-5-(1-piperidin-4-yl-1H-pyrazol-4-yl)-pyridin-2-ylamine trifluoroacetate] | 1000 to 20000 nM | 1000 to 20000 nM
14 | Nc1ncc(-c2cnn(C3CCNCC3)c2)cc1-c1oc2ccccc2c1-c1ccccc1 [Example 96, 3-(3-Phenylbenzofuran-2-yl)-5-(1-piperidin-4-yl-1H-pyrazol-4-yl)pyridine-2-ylamine] | 1000 to 20000 nM | 1000 to 20000 nM
15 | Nc1ncc(-c2cnn(C3CCNCC3)c2)cc1-c1oc2ccccc2c1-c1cccc(Cl)c1F [Example 97, 3-[3-(3-Chloro-2-fluorophenyl)benzofuran-2-yl]-5-(1-piperidin-4-yl-1H-pyrazol-4-yl)pyridine-2-ylamine] | 1000 to 20000 nM | 100 to 1000 nM
16 | Nc1ncc(-c2cnn(C3CCNCC3)c2)cc1-c1oc2ccccc2c1-c1cccc(F)c1F [Example 98, 3-[3-(2,3-Difluorophenyl)benzofuran-2-yl]-5-(1-piperidin-4-yl-1H-pyrazol-4-yl)pyridine-2-ylamine] | 1000 to 20000 nM | 100 to 1000 nM
17 | Nc1ncc(-c2cnn([C@@H]3CCNC3)c2)cc1-c1cc2ccccc2o1 [Example 99, 3-Benzofuran-2-yl-5-((R)-1-pyrrolidin-3-yl-1H-pyrazol-4-yl)-pyridin-2-ylamine dihydrochloride] | 100 to 1000 nM | 100 to 1000 nM
18 | CN1C2CCC1CC(n1cc(-c3cnc(N)c(-c4nc5ccccc5s4)c3)cn1)C2 (centres unmarked) [Example 108, 3-Benzothiazol-2-yl-5-[1-(8-methyl-8-azabicyclo [3.2.1]oct-3-yl)-1H-pyrazol-4-yl]-pyridin-2-ylamine trihydrochloride] | ≤ 100 nM | ≤ 100 nM
19 | CN1C2CCC1CC(n1cc(-c3cnc(N)c(-c4nc5ccccc5s4)c3)cn1)C2 (centres unmarked) [Example 109, 3-Benzothiazol-2-yl-5-[1-(8-methyl-8-azabicyclo[3.2.1]oct-3-yl)-1H-pyrazol-4-yl]-pyridin-2-ylamine] | ≤ 100 nM | ≤ 100 nM
20 | Nc1ncc(-c2cnn(C3CC4CCC(C3)N4)c2)cc1-c1nc2ccccc2s1 (centres unmarked) [Example 110, 5-[1-(8-Azabicyclo[3.2.1]oct-3-yl)-1H-pyrazol-4-yl]-3-benzothiazol-2-ylpyridin-2-ylamine] | 100 to 1000 nM | 100 to 1000 nM

The remaining lines, values ahead:

Row | IC50 (RON (human)) | IC50 (MET (human)) | Compound
21 | 100 to 1000 nM | 100 to 1000 nM | Nc1ncc(-c2cnn([C@H]3CCNC3)c2)cc1-c1cc2ccccc2o1 [Example 100, 3-Benzofuran-2-yl-5-((S)-1-pyrrolidin-3-yl-1H-pyrazol-4-yl)-pyridin-2-ylamine dihydrochloride]
22 | 1000 to 20000 nM | 1000 to 20000 nM | Cn1cc(-c2cnc(N)c(-c3cc4ccccc4o3)c2)cn1 [Example 101, 3-Benzofuran-2-yl-5-(1-methyl-1H-pyrazol-4-yl)-pyridin-2-ylamine bis-hydrochloride]
23 | 1000 to 20000 nM | 100 to 1000 nM | CC(C)n1cc(-c2cnc(N)c(-c3cc4ccccc4o3)c2)cn1 [Example 102, 3-Benzofuran-2-yl-5-(1-isopropyl-1H-pyrazol-4-yl)-pyridin-2-ylamine bis-hydrochloride]
24 | 1000 to 20000 nM | 100 to 1000 nM | CN(C)C(=O)N1CCC(n2cc(-c3cnc(N)c(-c4cc5ccccc5o4)c3)cn2)CC1 [Example 103, 4-[4-(6-Amino-5-benzofuran-2-yl-pyridin-3-yl)-pyrazol-1-yl]-piperidine-1-carboxylic acid dimethylamide bis-hydrochloride]
25 | 100 to 1000 nM | ≤ 100 nM | Nc1ncc(-c2cnn(C3CCNCC3)c2)cc1-c1cc2ccccc2s1 [Example 104, 3-Benzo[b]thiophen-2-yl-5-(1-piperidin-4-yl-1H-pyrazol-4-yl)-pyridin-2-ylamine bishydrochloride]
26 | 1000 to 20000 nM | 1000 to 20000 nM | Cc1c(-c2cc(-c3cnn(C4CCNCC4)c3)cnc2N)sc2ccccc12 [Example 105, 3-(3-Methylbenzo[b]thiophen-2-yl)-5-(1-piperidin-4-yl-1H-pyrazol-4-yl)pyridin-2-ylamine bishydrochloride]
27 | 100 to 1000 nM | ≤ 100 nM | Nc1ncc(-c2cnn(C3CCNCC3)c2)cc1-c1nc2ccccc2o1 [Example 106, 3-Benzoxazol-2-yl-5-(1-piperidin-4-yl-1H-pyrazol-4-yl)-pyridin-2-ylamine dihydrochloride]
28 | ≤ 100 nM | ≤ 100 nM | Nc1ncc(-c2cnn(C3CCNCC3)c2)cc1-c1nc2ccccc2s1 [Example 107, 3-Benzothiazol-2-yl-5-(1-piperidin-4-yl-1H-pyrazol-4-yl)-pyridin-2-ylamine dihydrochloride]
29 | 100 to 1000 nM | 100 to 1000 nM | Nc1ncc(-c2cnn(C3CCOCC3)c2)cc1-c1nc2ccccc2s1 [Example 111, 3-Benzothiazol-2-yl-5-[1-(tetrahydropyran-4-yl)-1H-pyrazol-4-yl]-pyridin-2-ylamine]
30 | 1000 to 20000 nM | 1000 to 20000 nM | Nc1ncc(-c2cn[nH]c2)cc1-c1nc2ccccc2s1 [Example 112, 3-Benzothiazol-2-yl-5-(1H-pyrazol-4-yl)-pyridin-2-ylamine]
31 | 1000 to 20000 nM | 100 to 1000 nM | Nc1ncc(-c2cnn(C3CCCCC3)c2)cc1-c1nc2ccccc2s1 [Example 113, 3-Benzothiazol-2-yl-5-(1-cyclohexyl-1H-pyrazol-4-yl)-pyridin-2-ylamine bis-hydrochloride]
32 | 100 to 1000 nM | 100 to 1000 nM | COCCN1CCC(n2cc(-c3cnc(N)c(-c4nc5ccccc5s4)c3)cn2)CC1 [Example 114, 3-Benzothiazol-2-yl-5-1-[1-(2-methoxyethyl)-piperidin-4-yl]-1H-pyrazol-4-yl-pyridin-2-ylamine]
33 | 1000 to 20000 nM | 1000 to 20000 nM | Nc1ncc(-c2cnn(C3CCN(CC(F)(F)F)CC3)c2)cc1-c1nc2ccccc2s1 [Example 115, 3-Benzothiazol-2-yl-5-1-[1-(2,2,2-trifluoroethyl)-piperidin-4-yl]-1H-pyrazol-4-yl-pyridin-2-ylamine dihydrochloride]
34 | 100 to 1000 nM | 100 to 1000 nM | NC(=O)N1CCC(n2cc(-c3cnc(N)c(-c4nc5ccccc5s4)c3)cn2)CC1 [Example 116, 4-[4-(6-Amino-5-benzothiazol-2-yl-pyridin-3-yl)-pyrazol-1-yl]-piperidine-1-carboxamide bis-hydrochloride]

Reference: US8178668B2, “2-aminopyridine kinase inhibitors” (OSI Pharmaceuticals, LLC, priority 2008, dated 2012)
